Test results taken from PubChem BioAssay (NCI).
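48-hour exposure; five concentrations; linearly interpolated endpoints. TGI marks complete inhibition of growth.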

Assays:
Experiment in all cases: inhibition of tumour cell growth, NCI panel, 48 h
HCT-116 colon = tested on: HCT-116 colon
DMS 114 small cell lung = tested on: DMS 114 small cell lung
KM12 colon = tested on: KM12 colon
SK-OV-3 ovarian = tested on: SK-OV-3 ovarian
SR leukemia = tested on: SR leukemia
MALME-3M melanoma = tested on: MALME-3M melanoma
NCI-H226 lung = tested on: NCI-H226 lung
DLD-1 colon = tested on: DLD-1 colon
UACC-257 melanoma = tested on: UACC-257 melanoma
HT29 colon = tested on: HT29 colon
EKVX NSCLC = tested on: EKVX NSCLC
LXFL 529 NSCLC = tested on: LXFL 529 NSCLC
HOP-18 NSCLC = tested on: HOP-18 NSCLC
SK-MEL-2 melanoma = tested on: SK-MEL-2 melanoma
U251 CNS = tested on: U251 CNS
UACC-62 melanoma = tested on: UACC-62 melanoma
SNB-78 CNS = tested on: SNB-78 CNS
IGROV1 ovarian = tested on: IGROV1 ovarian
CCRF-CEM leukemia = tested on: CCRF-CEM leukemia
M14 melanoma = tested on: M14 melanoma
OVCAR-4 ovarian = tested on: OVCAR-4 ovarian
HOP-62 NSCLC = tested on: HOP-62 NSCLC
HCC-2998 colon = tested on: HCC-2998 colon
KM20L2 colon = tested on: KM20L2 colon
NCI-H23 lung = tested on: NCI-H23 lung
RXF-631 renal = tested on: RXF-631 renal
SF-539 CNS = tested on: SF-539 CNS
K-562 leukemia = tested on: K-562 leukemia
SK-MEL-5 melanoma = tested on: SK-MEL-5 melanoma
OVCAR-3 ovarian = tested on: OVCAR-3 ovarian
SF-295 CNS = tested on: SF-295 CNS
MOLT-4 leukemia = tested on: MOLT-4 leukemia
SW-620 colon = tested on: SW-620 colon
HCT-15 colon = tested on: HCT-15 colon
786-0 renal = tested on: 786-0 renal
HOP-92 NSCLC = tested on: HOP-92 NSCLC
UO-31 renal = tested on: UO-31 renal
OVCAR-5 ovarian = tested on: OVCAR-5 ovarian
SN12C renal = tested on: SN12C renal
RXF 393 renal = tested on: RXF 393 renal
TK-10 renal = tested on: TK-10 renal
XF 498 CNS = tested on: XF 498 CNS
A549 NSCLC = tested on: A549 NSCLC
CAKI-1 renal = tested on: CAKI-1 renal
SK-MEL-28 melanoma = tested on: SK-MEL-28 melanoma
OVCAR-8 ovarian = tested on: OVCAR-8 ovarian
NCI-H522 lung = tested on: NCI-H522 lung
SNB-19 CNS = tested on: SNB-19 CNS
SF-268 CNS = tested on: SF-268 CNS
NCI-H460 lung = tested on: NCI-H460 lung
LOX IMVI melanoma = tested on: LOX IMVI melanoma
M19-MEL melanoma = tested on: M19-MEL melanoma
HL-60(TB) leukemia = tested on: HL-60(TB) leukemia
ACHN renal = tested on: ACHN renal
RPMI-8226 leukemia = tested on: RPMI-8226 leukemia
DMS 273 small cell lung = tested on: DMS 273 small cell lung
A498 renal = tested on: A498 renal
COLO 205 colon = tested on: COLO 205 colon
SNB-75 CNS = tested on: SNB-75 CNS

Measured: TGI

COC(=O)C(=O)C(CC(=O)Nc1c(C)cccc1C)C(=O)OC (stereo not given)
not listed: DMS 273 small cell lung | A498 renal | COLO 205 colon | SNB-75 CNS
> 100 µM: all other assays above

CCOC(=O)C(C(=O)OCC)P(=S)(S)c1ccccc1 (stereo not given)
not listed: HCT-116 colon | HOP-18 NSCLC | SNB-78 CNS | M14 melanoma | HCC-2998 colon | OVCAR-3 ovarian | HCT-15 colon | RPMI-8226 leukemia | SNB-75 CNS
> 100 µM: all other assays above

CCOC(=O)C(/C(=N/NC(=O)OC)C(=O)Nc1ccc(C(C)=O)cc1)c1cnc2ccccc2n1 (stereo not given)
not listed: SK-MEL-2 melanoma | MOLT-4 leukemia | RPMI-8226 leukemia | DMS 273 small cell lung
> 100 µM: all other assays above
